Assay results from patent US20240294508A1, “RIP1 MODULATORS INCLUDING AZETIDINE CYCLIC UREAS, PREPARATIONS, AND USES THEREOF” (SIRONAX LTD., priority 2021, published 2024).

Test system: HT-29 cells
Experiment: HT29 cells 0FBS assay in vitro: TNF-α/SMAC mimetic/zVAD-FMK induced necroptosis, CellTiter-Glo cell viability (RIP1 inhibitory activity)
Format: cell-based
Conditions: Homo sapiens, FBS free medium, TNF-α (10 ng/ml) + SMAC mimetic (6 uM) + zVAD-FMK (10 μM), 20 hours, geometric mean EC50
Summary of the method: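 HT-29 cells (5,000/well, overnight) switched to FBS-free McCOY's 5A with TNF-α (10 ng/ml), SMAC mimetic (6 uM) and zVAD-FMK (10 μM) to drive necroptosis, plus compound, for 20 hours at 37° C. Viability read by CellTiter-Glo luminescence; geometric mean EC50 from 10-point duplicate dose-response.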

Structure (SMILES): Cn1nccc1-c1cc(OC2CN(C(=O)N3N=CC[C@H]3c3cncc(F)c3)C2)c(F)cn1 [Compound 27, (S)-(3-((5-fluoro-2-(1-methyl-1H-pyrazol-5-yl)pyridin-4-yl)oxy)azetidin-1-yl)(5-(5-fluoropyridin-3-yl)-4,5-dihydro-1H-pyrazol-1-yl)methanone]
- EC50: 0.1 to 100 nM

Structure (SMILES): Cn1cccc(-c2cc(OC3CN(C(=O)N4N=CC[C@H]4c4cc(F)cc(F)c4)C3)c(F)cn2)c1=O (stereo in doubt) [Compound 169, 4-((1-(5-(3,5-difluorophenyl)-4,5-dihydro-1H-pyrazole-1-carbonyl)azetidin-3-yl)oxy)-5-fluoro-1′-methyl-[2,3′-bipyridin]-2′(1′H)-one]
- EC50: 100 to 1000 nM

Structure (SMILES): Cc1c(C(N)=O)nn(C)c1-c1cc(OC2CN(C(=O)N3N=CC[C@H]3c3cc(F)cc(C#N)c3)C2)c(F)cn1 [Compound 58, (S)-5-(4-((1-(5-(3-cyano-5-fluorophenyl)-4,5-dihydro-1H-pyrazole-1-carbonyl)azetidin-3-yl)oxy)-5-fluoropyridin-2-yl)-1,4-dimethyl-1H-pyrazole-3-carboxamide]
- EC50: 0.1 to 100 nM

Structure (SMILES): Cc1nn(-c2cc(OC3CN(C(=O)N4N=CC[C@H]4c4ccccc4)C3)c(F)cn2)c(C)c1C(=O)NC1COC1 [Compound 76, (S)-1-(5-fluoro-4-((1-(5-phenyl-4,5-dihydro-1H-pyrazole-1-carbonyl)azetidin-3-yl)oxy)pyridin-2-yl)-3,5-dimethyl-N-(oxetan-3-yl)-1H-pyrazole-4-carboxamide]
- EC50: 0.1 to 100 nM

Structure (SMILES): Cn1ncc(C#N)c1-c1cc(OC2CN(C(=O)N3N=CC[C@H]3c3cc(F)cc(C#N)c3)C2)c(F)cn1 [Compound 9, (S)-5-(4-((1-(5-(3-cyano-5-fluorophenyl)-4,5-dihydro-1H-pyrazole-1-carbonyl)azetidin-3-yl)oxy)-5-fluoropyridin-2-yl)-1-methyl-1H-pyrazole-4-carbonitrile]
- EC50: 0.1 to 100 nM

Structure (SMILES): Cc1ncc(C2CC=NN2C(=O)N2CC(Oc3nc(-c4c(C)cnn4C)c(F)cc3F)C2)s1 (centres unmarked) [Compound 123, (3-((6-(1,4-dimethyl-1H-pyrazol-5-yl)-3,5-difluoropyridin-2-yl)oxy)azetidin-1-yl)(5-(2-methylthiazol-5-yl)-4,5-dihydro-1H-pyrazol-1-yl)methanone]
- EC50: 0.1 to 100 nM

Structure (SMILES): Cc1ncc(C2CC=NN2C(=O)N2CC(Oc3nc(-c4c(C)cnn4C)ccc3F)C2)s1 (centres unmarked) [Compound 106, (3-((6-(1,4-dimethyl-1H-pyrazol-5-yl)-3-fluoropyridin-2-yl)oxy)azetidin-1-yl)(5-(2-methylthiazol-5-yl)-4,5-dihydro-1H-pyrazol-1-yl)methanone]
- EC50: 0.1 to 100 nM

Structure (SMILES): Cc1nc(C2CC=NN2C(=O)N2CC(Oc3cc(-c4c(C)cnn4C)c(F)cc3F)C2)cs1 (centres unmarked) [Compound 131, (3-(5-(1,4-dimethyl-1H-pyrazol-5-yl)-2,4-difluorophenoxy)azetidin-1-yl)(5-(2-methylthiazol-4-yl)-4,5-dihydro-1H-pyrazol-1-yl)methanone]
- EC50: 0.1 to 100 nM

Structure (SMILES): Cc1cnn(C)c1-c1cnc(OC2CN(C(=O)N3N=CC[C@H]3c3cc(F)cc(F)c3)C2)s1 [Compound 154, (S)-(5-(3,5-difluorophenyl)-4,5-dihydro-1H-pyrazol-1-yl)(3-((5-(1,4-dimethyl-1H-pyrazol-5-yl)thiazol-2-yl)oxy)azetidin-1-yl)methanone]
- EC50: 0.1 to 100 nM

Structure (SMILES): Cc1ncc(C2CC=NN2C(=O)N2CC(Oc3nc(-c4c(C)cnn4C)ncc3F)C2)s1 (centres unmarked) [Compound 109, (3-((2-(1,4-dimethyl-1H-pyrazol-5-yl)-5-fluoropyrimidin-4-yl)oxy)azetidin-1-yl)(5-(2-methylthiazol-5-yl)-4,5-dihydro-1H-pyrazol-1-yl)methanone]
- EC50: 0.1 to 100 nM

Structure (SMILES): Cc1cnn(C)c1-c1cc(OC2CN(C(=O)N3N=CC[C@H]3c3cncc(F)c3)C2)c(F)cn1 [Compound 30, (S)-(3-((2-(1,4-dimethyl-1H-pyrazol-5-yl)-5-fluoropyridin-4-yl)oxy)azetidin-1-yl)(5-(5-fluoropyridin-3-yl)-4,5-dihydro-1H-pyrazol-1-yl)methanone]
- EC50: 0.1 to 100 nM
